Measured values: patent US11801256B2, “Antidepressant-psilocybin co-treatment to assist psychotherapy” (Universitätsspital Basel, priority 2021, dated 2023)

Assays:
[1] = test system: healthy subjects; assay: Subjective effects, visual analog scales (VAS), clinical study; assay type: in vivo, human
Description: (§1) Treatment order was random and counterbalanced.
Study procedures: Subjects took part in a 2-hour screening session, two 9.5-hour test sessions where the psilocybin was administered and a 1-hour end-of-study visit. The subjects were informed about the study both verbally and by the approved written consent form regarding the altered state of consciousness, the study procedures and associated risks. The investigator and the subject both personally signed and dated the consent form as confirmation of consent. Subjects were screened using a semi-structured clinical interview for DSM-IV (Diagnostic and Statistical Manual Version 4) (Wittchen et al., 1997) to exclude those with a personal or family (first-degree relative) axis I major psychiatric disorder (acute or past) or a history of illicit drug dependence. Axis I major psychiatric disorders included also addiction disorders. The sessions were conducted in a calm standard hospital room. Only one research subject and one investigator were present during the test sessions. The test sessions began at 9 AM. The subjects then underwent baseline measurements. […] Psilocybin was administered at 11:00 AM. The outcome measures were repeatedly assessed for 7 hours. The subjects were under constant supervision by an investigator until 6 PM. Thus, the subjects were never alone during the 7 hours after drug administration. The subjects were sent home at 6:30 PM.
Subjective Effects Questionnaire (Visual Analog Scales, VAS): VAS was repeatedly used to assess subjective alterations in consciousness over time. Single scales were presented as 100 mm horizontal lines marked with “not at all” on the left and “extremely” on the right. The following VAS items were used: “any drug effect”, “good drug effect”, “bad drug effect”, “drug liking”, “drug high”, “stimulated”, “fear”, “happy”, “content”, “trust”, “talkative”, “perception of time”, “open”, “concentration”, “speed of thinking”, “feeling close to others”, “wanting to be hugged”, “wanting to hug someone”, “desire to be alone”, “desire to be with others”, and “ego dissolution”. The VASs were presented as 100-mm horizontal lines (0-100%), marked from “not at all” on the left to “extremely” on the right. Some VASs were bidirectional (±50%). Marked from “not at all” on the left (−50), to “normal” in the middle (0), to “extremely” on the right (+50).
(§2) The criterion for significance was p<0.05.

[2] = test system: healthy subjects; assay: QTc time; assay type: in vivo, human; conditions: escitalopram pretreatment compared with placebo
Description: Exclusion criteria: Chronic or acute medical condition, including a history of seizures. Current or previous major psychiatric disorder (e.g. psychotic disorders, mania/hypomania, anxiety disorders, and substance abuse). Psychotic disorder in first-degree relatives, not including psychotic disorders secondary to an apparent medical reason, e.g. brain injury, dementia, or lesions of the brain. Illicit substance use (with the exception of cannabis) more than 10 times or any time within the previous two months. History of an angle closure glaucoma. Pregnant or nursing women. Participation in another clinical trial (currently or within the last 30 days). […] A corrected QT time (QTc), calculated by Bazett's formula, of over 450 milliseconds in males and over 470 milliseconds in females. Tobacco smoking (>10 cigarettes/day). Consumption of alcoholic drinks (>10 drinks/week). Bodyweight <45 kg.

[3] = test system: healthy subjects; assay: Mystical Experience Questionnaire (MEQ30, MEQ43); assay type: in vivo, human; conditions: escitalopram 14 days pretreatment vs placebo; P=0.001
Description: as §1
Mystical experiences were assessed using the German version (Liechti et al., 2017) of the 100-item States of Consciousness Questionnaire (SOCQ) (Griffiths et al., 2006) that includes the 43-item and newer 30-item MEQ (MEQ43 (Griffiths et al., 2006) and MEQ30 (Barrett et al., 2015)). The scale was be administered once at the end of each test session.

[4] = test system: healthy subjects; assay: Adjective Mood Rating Scale (AMRS); assay type: in vivo, human; conditions: escitalopram 14 days pretreatment vs placebo; P=0.007
Description: as §1
The 60-item Adjective Mood Rating Scale (AMRS) (Janke & Debus, 1978) was administered before and 2, 3, 5, and 7 hours after psilocybin administration.
as §2

[5] = target: CYP2C19 (Homo sapiens, UniProt P33261); conditions: FDA, 2017; Swissmedic, 2020; cited from earlier work
CYP2C19, sequence (P33261 whole entry): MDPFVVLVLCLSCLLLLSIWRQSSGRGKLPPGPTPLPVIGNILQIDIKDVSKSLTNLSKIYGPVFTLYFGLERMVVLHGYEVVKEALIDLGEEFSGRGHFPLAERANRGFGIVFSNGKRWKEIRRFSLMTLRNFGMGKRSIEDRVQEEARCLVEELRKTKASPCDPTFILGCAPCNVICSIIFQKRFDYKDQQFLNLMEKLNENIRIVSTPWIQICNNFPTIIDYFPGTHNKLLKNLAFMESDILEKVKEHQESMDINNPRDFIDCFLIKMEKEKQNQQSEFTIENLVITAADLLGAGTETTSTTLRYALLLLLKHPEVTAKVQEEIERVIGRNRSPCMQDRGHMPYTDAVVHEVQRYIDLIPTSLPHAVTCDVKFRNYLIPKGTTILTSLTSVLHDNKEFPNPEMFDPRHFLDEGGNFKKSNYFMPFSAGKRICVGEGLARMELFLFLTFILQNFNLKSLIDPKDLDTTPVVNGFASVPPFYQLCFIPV

[6] = test system: healthy subjects; assay: Autonomic measures (blood pressure, heart rate, body temperature, pupil size)
Description: Study design: A double-blind, cross-over design was used with two conditions. […] 2) Pretreatment with placebo for 14 days with the last administration on the study day and administration of 25 mg psilocybin 2 hours later. Treatment order was random and counterbalanced. Between the 14 days pretreatment and the study day, there were at least 2 days washout until the next pretreatment phase began.
Autonomic measures: Blood pressure, heart rate, and body temperature were recorded at baseline and repeatedly throughout the session. Blood pressure (systolic and diastolic) and heart rate were measured with an automatic oscillometric device. Body temperature was measured with an ear thermometer as previously described in detail (Hysek et al., 2010). Measures were taken before and at 0, 0.25, 0.5, 0.75, 1, 1.5, 2, 2.5, 3, 4, 5, 6 and 7 hours after psilocybin administration.
Data analysis: Peak (Emax and/or Emin) or peak change from baseline (ΔEmax) values were determined for repeated measures. The values were then analyzed using paired T-tests using Statistica 12 software (StatSoft, Tulsa, OK, USA). The criterion for significance was p<0.05.

[7] = test system: BDNF; assay: Plasma BDNF levels (ELISA); assay type: in vivo, human; conditions: escitalopram 14 days pretreatment vs placebo
Description: Psychedelics can induce neuroregeneration (Ly et al., 2018). Plasma BDNF levels are a possible biomarker for neurogenesis (Haile et al., 2014). Psychedelics increase BDNF (Holze et al., 2021; Hutten et al., 2020) and higher BDNF levels were associated with lower depression ratings after administration of psychedelics (de Almeida et al., 2019). Plasma BDNF levels were measured at baseline and 4 and 7 hours after drug administration using the Biosensis Mature BDNF Rapid ELISA Kit (Thebarton, Australia) (Akimoto et al., 2019).

[8] = escitalopram 14 days pretreatment vs placebo, P=0.004
[9] = escitalopram pretreatment compared to psilocybin alone (summary)
[10] = escitalopram pretreatment compared with placebo pretreatment (summary)

## CN(C)CCC[C@@]1(c2ccc(F)cc2)OCc2cc(C#N)ccc21 [Escitalopram, escitalopram]
[1]; escitalopram 14 days pretreatment vs placebo
  effect on good drug effects of psilocybin: did not significantly reduce
[1]; [8]
  reduction of peak anxiety induced by psilocybin: 50%
  reduction of peak bad drug effects induced by psilocybin: 50%
[1]; escitalopram 14 days pretreatment vs placebo, P=0.015
  effect on any drug effects in response to psilocybin: slightly, but significantly reduced
[1]; escitalopram pretreatment 14 days (10 mg 7 days, 20 mg 7 days) before 25 mg psilocybin, compared to placebo pretreatment
  effect on the response to psilocybin, overall: only a small effect
[1]; [9]
  effect on psilocybin-induced fear: reduced
[1]; [10]
  effect on anxiety of psilocybin (in words): significantly reduced
  effect on bad drug effects of psilocybin (in words): significantly reduced
  effect on the positive mood effects of psilocybin: no relevant effect
[2]
  QTc time before or after psilocybin administration: did not alter
[3]
  effect on psilocybin-induced nadir effects in the MEQ43: significantly reduced
[4]
  effect on psilocybin-induced anxiety in the AMRS: significantly reduced
[5]
  inhibition of CYP2C19 function: slightly inhibits
[6]; escitalopram 14 days pretreatment vs placebo, P<0.001
  effect on psilocybin-induced elevations in peak systolic blood pressure: reduced
[6]; escitalopram 14 days pretreatment vs placebo, P=0.001
  effect on psilocybin-induced elevations in rate pressure product: reduced
[6]; escitalopram 14 days pretreatment vs placebo, P=0.002
  effect on psilocybin-induced pupil dilation: reduced
[6]; escitalopram 14 days pretreatment vs placebo, P=0.017
  effect on psilocybin-induced elevations in peak diastolic blood pressure: reduced
[6]; [9]
  effect on psilocybin-induced cardio-stimulant effects: reduced
[6]; [10]
  effect on adverse autonomic effects of psilocybin: significantly reduced
[7]
  effect on the psilocybin-induced moderate increase in BDNF: did not significantly alter
